This passage reports IC50 and remaining activity results from paper PMC9469100, “Turning Nonselective Inhibitors of Type I Protein Arginine Methyltransferases into Potent and Selective Inhibitors of Protein Arginine Methyltransferase 4 through a Deconstruction–Reconstruction and Fragment-Growing Approach” (Journal of Medicinal Chemistry, 2022).

Usually IC50 stands for the point on the concentration scale where inhibition reaches its midpoint. The low end stands for greater potency, the high end for weaker potency.

The target of experiment [1] is PRMT1 (Homo sapiens, UniProt Q99873). Nature of the experiment: AlphaLISA PRMT1 activity assay (H4R3me). For orientation: Bead proximity is the source of the signal in Alpha formats.
Chain of PRMT1 (Q99873 whole entry): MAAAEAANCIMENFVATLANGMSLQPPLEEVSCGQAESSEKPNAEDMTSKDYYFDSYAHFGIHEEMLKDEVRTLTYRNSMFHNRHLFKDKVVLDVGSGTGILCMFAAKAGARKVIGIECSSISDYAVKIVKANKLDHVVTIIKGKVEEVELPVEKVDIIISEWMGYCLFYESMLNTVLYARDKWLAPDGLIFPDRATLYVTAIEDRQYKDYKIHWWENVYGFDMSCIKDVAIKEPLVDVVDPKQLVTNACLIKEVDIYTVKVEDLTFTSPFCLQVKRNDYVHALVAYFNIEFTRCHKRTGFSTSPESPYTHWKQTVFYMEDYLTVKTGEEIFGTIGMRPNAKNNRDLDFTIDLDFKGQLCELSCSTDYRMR
Protocol: Then, we resolved to determine their effect on the catalytic activity of human recombinant PRMT1, chosen as representative of class I PRMTs. […] PRMT1 activity assays were performed by taking advantage of the AlphaLISA homogeneous proximity assay.
The reaction was incubated for 60 min, and then it was stopped by the addition of 5 μL of antimethyl-histone H4 arginine 3 (H4R3me) AlphaLISA acceptor beads (PerkinElmer, #AL150) (final concentration, 20 μg/mL) diluted in Epigenetic Buffer 1X (PerkinElmer, #AL008).
For each incubation step, the OptiPlate was sealed with protective foil to prevent evaporation and contamination. Donor and acceptor beads were added in subdued light.
The 100% activity (positive control) was reached using the vehicle (DMSO) while the 0% activity (negative control) was obtained without the protein. Data were analyzed using Excel software. Values obtained for each compound are mean ± SD determined for three separate experiments.
Experiment [2] deals with T1, ASH1L (Homo sapiens, UniProt Q9NR48).
T1 construct: ASH1L (residues 2046–2330, with an N-terminal His-tag); His (N); purchased Reaction Biology Corporation
Nature of the experiment: HotSpot KMT activity assay, ASH1L. Format: biochemical. Conditions: 1 µM; mean ± SD, two experiments; read-out: % enzyme residual activ. after treatment with 12h, 1 µM, ASH1L. Here is the method:
(§1) Then, ^3H-SAM (final concentration 1 μM) was delivered into the reaction mixture to initiate the reaction. After incubation for 60 min at 30 °C, the reaction mixture was delivered to filter-paper for detection (as assessed by scintillation). […] No inhibitor control (DMSO) was considered as 100% enzyme activity. Data were analyzed using Excel and GraphPad Prism 6.0 software (GraphPad Software Inc., San Diego, CA). Values obtained for each compound are mean ± SD determined for two separate experiments.

For experiment [3], the target named is T2, DOT1L (Homo sapiens, UniProt Q8TEK3).
T2 construct: DOT1L (residues 1–416); N-terminal GST-tag; GST (N); purchased Reaction Biology Corporation
T2 sequence (Q8TEK3 1-416): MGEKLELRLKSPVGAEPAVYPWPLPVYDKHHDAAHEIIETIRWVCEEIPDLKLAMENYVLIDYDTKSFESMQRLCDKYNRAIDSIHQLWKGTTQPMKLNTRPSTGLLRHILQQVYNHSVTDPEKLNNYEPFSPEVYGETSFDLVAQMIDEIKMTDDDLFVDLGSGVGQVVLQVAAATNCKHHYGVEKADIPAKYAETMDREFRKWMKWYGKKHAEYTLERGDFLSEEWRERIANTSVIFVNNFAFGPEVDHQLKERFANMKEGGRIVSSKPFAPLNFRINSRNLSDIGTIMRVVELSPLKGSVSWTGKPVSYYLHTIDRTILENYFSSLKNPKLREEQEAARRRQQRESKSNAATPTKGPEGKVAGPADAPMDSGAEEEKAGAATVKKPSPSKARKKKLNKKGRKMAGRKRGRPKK
Nature of the experiment: HotSpot KMT activity assay, DOT1L. Format: biochemical. Conditions: mean ± SD, two experiments, read-out: % enzyme residual activ. after treatment with 12h, 1 µM, DOT1L. Here is the method:
as §1

For experiment [4], the target named is G9a (Homo sapiens, UniProt Q96KQ7). Nature of the experiment: HotSpot KMT activity assay, G9a. Format: biochemical. The following applies: mean ± SD, two experiments, read-out: % enzyme residual activ. after treatment with 12h, 1 µM, G9a. As to the method: as §1
Chain of G9a (Q96KQ7 whole entry): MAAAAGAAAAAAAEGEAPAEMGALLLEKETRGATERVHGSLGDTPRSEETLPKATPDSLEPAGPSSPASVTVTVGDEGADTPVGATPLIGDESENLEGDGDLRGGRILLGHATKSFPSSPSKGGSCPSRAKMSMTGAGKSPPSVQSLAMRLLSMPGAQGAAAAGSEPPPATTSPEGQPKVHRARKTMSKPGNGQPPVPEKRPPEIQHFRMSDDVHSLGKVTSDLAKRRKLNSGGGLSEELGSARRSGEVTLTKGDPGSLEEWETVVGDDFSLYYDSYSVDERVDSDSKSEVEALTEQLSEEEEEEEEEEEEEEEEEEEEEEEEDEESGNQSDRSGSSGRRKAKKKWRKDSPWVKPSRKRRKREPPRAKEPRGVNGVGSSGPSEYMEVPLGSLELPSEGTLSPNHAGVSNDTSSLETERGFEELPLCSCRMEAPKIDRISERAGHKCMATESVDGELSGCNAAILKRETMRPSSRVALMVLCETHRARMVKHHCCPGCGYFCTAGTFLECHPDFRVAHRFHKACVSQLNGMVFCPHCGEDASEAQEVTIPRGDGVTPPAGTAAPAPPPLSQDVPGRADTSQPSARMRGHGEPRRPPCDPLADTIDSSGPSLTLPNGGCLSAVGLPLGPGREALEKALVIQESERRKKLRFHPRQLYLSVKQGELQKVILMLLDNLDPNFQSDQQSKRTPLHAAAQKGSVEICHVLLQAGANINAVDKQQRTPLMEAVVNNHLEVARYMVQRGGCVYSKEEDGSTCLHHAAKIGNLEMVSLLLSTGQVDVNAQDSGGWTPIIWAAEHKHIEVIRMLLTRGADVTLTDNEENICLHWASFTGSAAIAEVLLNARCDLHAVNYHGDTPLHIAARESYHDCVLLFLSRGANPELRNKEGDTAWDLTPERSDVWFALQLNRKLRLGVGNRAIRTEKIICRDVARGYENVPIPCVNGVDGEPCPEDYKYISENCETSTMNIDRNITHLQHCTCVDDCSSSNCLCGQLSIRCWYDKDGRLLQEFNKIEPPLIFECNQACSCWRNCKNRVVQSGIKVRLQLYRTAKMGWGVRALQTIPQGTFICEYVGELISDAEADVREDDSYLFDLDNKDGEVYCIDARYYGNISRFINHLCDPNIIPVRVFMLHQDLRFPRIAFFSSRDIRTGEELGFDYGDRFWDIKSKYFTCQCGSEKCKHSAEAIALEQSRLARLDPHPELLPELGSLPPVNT

In turn, `COC(=O)c1cc(O)c2cc(NC(=O)NCCCCCNC(=N)NC[C@H]3O[C@@H](n4cnc5c(N)ncnc54)[C@H](O)[C@@H]3O)ccc2c1` [12c, Methyl 6-(3-(5-(3-(((2R,3S,4R,5R)-5-(6-Amino-9H-purin-9-yl)-3,4-dihydroxytetrahydrofuran-2-yl)methyl)guanidino)pentyl)ureido)-4-hydroxy-2-naphthoate] had an IC50 in experiment [1] of 300 nM.

Regarding `COC(=O)c1cc(O)c2cc(NC(=O)NCCCCNC(=N)NC/C=C/[C@H]3O[C@@H](n4cnc5c(N)ncnc54)[C@H](O)[C@@H]3O)ccc2c1` [12h, Methyl 6-(3-(4-(3-((E)-3-((2R,3S,4R,5R)-5-(6-Amino-9H-purin-9-yl)-3,4-dihydroxytetrahydrofuran-2-yl)allyl)guanidino)butyl)ureido)-4-hydroxy-2-naphthoate], the figures for the remaining activity at 1 µM in experiment [2], in experiment [3] and in experiment [4] were 90.76 ± 0.13%, 97.7 ± 3.48% and 102 ± 1.67%, respectively.
